Data from US10001584B2, “Optical film, and polarizing plate and liquid crystal display device that use this optical film” (FUJIFILM Corporation, priority 2013, dated 2018).
Like-named read-outs stand apart in the source and are kept apart here.

How the values were obtained:
[1] = pKa by alkali titration with automatic potentiometric titrator; type: physicochemical; settings: mixed solvent THF/H2O=6/4 (volume ratio), 25° C.; for pKa: Table 1
Procedure: pKa of the obtained exemplificative compound was measured in a mixed solvent having a volume ratio of tetrahydrofuran (THF)/water (H2O)=6/4 at 25° C. by an alkali titration method using automatic potentiometric titrator [AT-610: manufactured by Kyoto Electronics Manufacturing Co., Ltd.].
The pKa of the compound of the present invention and the comparative compound in a mixed solvent having a volume ratio of tetrahydrofuran (THF)/water (H2O)=6/4 at 25° C. was measured by an alkali titration method using automatic potentiometric titrator (AT-610: manufactured by Kyoto Electronics Manufacturing Co., Ltd.).

[2] = Volatility: mass change rate of the compound by TG/DTA, held at 140° C. for 1 hour; type: physicochemical; settings: for Volatility: held at 140° C. for 1 hour; for volatility suppression effect: in words, discussion of Table 1
Procedure: The compound denoted by Formula (I) in the present invention was heated from room temperature to 140° C. by using a TG/DTA measurement device (TG/DTA7200 manufactured by Hitachi High-Tech Science Corporation), a change rate of the mass of the compound at the time of being held at 140° C. for 1 hour (a change rate with respect to the mass before being heated) was measured, and the volatility was evaluated on the basis of the following criteria.

[3] = tetrahydrofuran/water 6/4 (v/v) mixed solvent, read-out: pKa

For `O=C(O)CN(CC(=O)O)Cc1ccccc1` [(0-2)], the pKa [1, 3] was 3.2, the Volatility ([2]; compound alone, Table 1) was “B (The change rate of the mass of greater than or equal to 0.2% and less than 0.5%)” and the volatility suppression effect [2] was “insufficient”.
In the case of `CCC(Oc1ccc(C(C)(C)CC)cc1C(C)(C)CC)C(=O)Nc1cccc(C(=O)O)c1` (stereo not shown) [(0-3)], the pKa [1, 3] is reported as 6.6 and the Volatility ([2]; compound alone, Table 1) is reported as “A (The change rate of the mass of less than or equal to 0.2%)”.
With `O=C1NC(=O)N(Cc2ccccc2)C(=O)C1c1ccccc1` (stereo not shown) [Comparative Compound (0-1)] the pKa [1, 3] was 3.7, the Volatility ([2]; compound alone, Table 1) was “B (The change rate of the mass of greater than or equal to 0.2% and less than 0.5%)” and the volatility suppression effect [2] was “insufficient”.
In the case of `O=C(O)CN(CC(=O)OCc1ccccc1)CC(=O)OCc1ccccc1` [Exemplificative Compound (1-1)], the “pKa Value” [1] is reported as 6.0, the pKa [1] is reported as 6.0 and the Volatility ([2]; additive, Table 3) is reported as “A (The change rate of the mass of less than or equal to 0.2%)”. The Volatility ([2]; additive, Table 4) was “A (The change rate of the mass of less than or equal to 0.2%)” and the Volatility ([2]; compound alone, Table 1) was “A (The change rate of the mass of less than or equal to 0.2%)”.
